Measured values reported in patent publication US6348485B1, “Method for treating or preventing sleep disorders” (Takeda Chemical Industries, Ltd., priority 1998, dated 2002).

How the values were obtained:
[1] = test system: crab-eating macaques (Macaca fascicularis); assay: Sleep latencies at nighttime in monkeys (EEG/EMG/EOG sleep stage classification); assay type: in vivo; settings: vs control
Protocol: (§1) Six female crab-eating macaques (Macaca fascicularis), weighing 2.8-4.2 kg, were housed individually in a room maintained at 24±1° C. with a 12-h light/dark cycle (light on 6:00). Under sodium pentobarbital anesthesia, stainless steel screw and bipolar electrodes for electroencephalogram (EEG), electromyogram (EMG) and electro-oculogram (EOG) were implanted. After recovery from surgery, the monkeys were well habituated to the recording chamber (60×60×80 cm) located in a sound-proof and electrically shielded room. Compound A (0.003 mg/kg) and/or triazolam (0.03 mg/kg) were given orally 17:50-17:55. Compound A and triazolam were suspended in 0.5% methylcellulose solution. The control monkey was given 0.5% MC. The behaviors of subjects were observed using a video camera with infrared light sensitivity. EEG, EMG and EOG were recorded on a MO disk with an electroencephalograph (EE5518, NEC Medical Systems, Tokyo, Japan). All recordings were carried out from 18:00 until 6:00. The EEG power spectral analysis was also performed continuously by means of a fast Fourier transform (FFT) system equipped with a personal computer. […] Latencies of each sleep stage (the time until the first appearance of each sleep stage) were determined from 18:00. The occurrence of each sleep stage at nighttime and other sleep parameters were also determined.

[2] = test system: crab-eating macaques (Macaca fascicularis); assay: Observation of general behavior of monkeys (video camera); assay type: in vivo; settings: triazolam 0.03 mg/kg p.o. alone
Protocol: as §1

Compound | effect on the latency of any sleep stages ([1]; compound A 0.003 mg/kg p.o. alone) | effect on the sleep latencies ([1]; triazolam 0.03 mg/kg p.o. alone) | ataxia and sedation [2] | effect on general behavior [2]
CCC(=O)NCC[C@@H]1CCc2ccc3c(c21)CCO3 [compound A, (S)-N-[2-(1,6,7,8-tetrahydro-2H-indeno[5,4-b]furan-8-yl)ethyl]propionamide] | no significant effects |  |  | 
Cc1nnc2n1-c1ccc(Cl)cc1C(c1ccccc1Cl)=NC2 [triazolam, 8-chloro-6-(2-chlorophenyl)-1-methyl-4H-[1,2,4]triazolo[4,3-a][1,4]benzodiazepine] |  | no significant effects | did not cause | did not affect
